In ChEMBL document CHEMBL1201861, “Genomics of Drug Sensitity in Cancer screening data, Wellcome Trust Sanger Institute”:

What was measured:
Assay in all cases: cells
Details in all cases: Homo sapiens
LB771-HNC = format: functional, cell-based;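 note: growth inhibition of LB771-HNC human cells, read out with a cell viability assay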
Description: SANGER: Inhibition of human LB771-HNC cell growth in a cell viability assay.

BB65-RCC = format: functional, cell-based;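 note: growth inhibition of the cell line, measured with a cell viability assay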
Description: SANGER: Inhibition of human BB65-RCC cell growth in a cell viability assay.

IST-SL1 = format: functional, cell-based;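 note: growth inhibition of human IST-SL1 cells, read out with a cell viability assay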
Description: SANGER: Inhibition of human IST-SL1 cell growth in a cell viability assay.

BV-173 = format: functional, cell-based
Description: SANGER: Inhibition of human BV-173 cell growth in a cell viability assay.

NOS-1 = format: functional, cell-based;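 note: growth inhibition of the human NOS-1 cell line, read out with a cell viability assay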
Description: SANGER: Inhibition of human NOS-1 cell growth in a cell viability assay.

MHH-NB-11 = format: functional, cell-based;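 note: growth inhibition of human MHH-NB-11 cells, read out by a cell viability assay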
Description: SANGER: Inhibition of human MHH-NB-11 cell growth in a cell viability assay.

TE-1 = format: functional, cell-based;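 note: growth inhibition of the human TE-1 cell line, read out with a cell viability assay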
Description: SANGER: Inhibition of human TE-1 cell growth in a cell viability assay.

TE-5 = format: functional, cell-based;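 note: inhibition of cell growth, read out by a cell viability assay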
Description: SANGER: Inhibition of human TE-5 cell growth in a cell viability assay.

PSN1 = format: functional, cell-based;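 note: suppression of growth of human PSN1 cells, read out by a cell viability assay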
Description: SANGER: Inhibition of human PSN1 cell growth in a cell viability assay.

NKM-1 = format: functional, cell-based;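 note: growth inhibition of NKM-1 cells, read out with a cell viability assay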
Description: SANGER: Inhibition of human NKM-1 cell growth in a cell viability assay.

KLE = format: functional, cell-based;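 note: growth inhibition of human KLE cells, read out with a cell viability assay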
Description: SANGER: Inhibition of human KLE cell growth in a cell viability assay.

RPMI-8226 = format: functional, cell-based
Description: SANGER: Inhibition of human RPMI-8226 cell growth in a cell viability assay.

RCC10RGB = format: functional, cell-based;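 note: growth inhibition of human RCC10RGB cells, read out by a cell viability assay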
Description: SANGER: Inhibition of human RCC10RGB cell growth in a cell viability assay.

COLO-684 = format: functional, cell-based
Description: SANGER: Inhibition of human COLO-684 cell growth in a cell viability assay.

NCI-H2126 = format: functional, cell-based;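 note: growth inhibition of the cancer cell line, determined with a cell viability readout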
Description: SANGER: Inhibition of human NCI-H2126 cell growth in a cell viability assay.

EKVX = format: functional, cell-based;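 note: growth inhibition of human EKVX cells, read out with a cell viability assay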
Description: SANGER: Inhibition of human EKVX cell growth in a cell viability assay.

KU812 cell line = format: functional, cell-based;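 note: growth inhibition of KU812 cells, read out with a cell viability assay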
Description: SANGER: Inhibition of human KU812 cell growth in a cell viability assay.

BE-13 = format: functional, cell-based;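 note: growth inhibition of human BE-13 cells, measured with a cell viability assay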
Description: SANGER: Inhibition of human BE-13 cell growth in a cell viability assay.

SW872 = format: functional, cell-based;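 note: growth inhibition of SW872 cells, read out by a viability assay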
Description: SANGER: Inhibition of human SW872 cell growth in a cell viability assay.

HAL-01 = format: functional, cell-based;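 note: growth inhibition of human HAL-01 cells, read out with a cell viability assay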
Description: SANGER: Inhibition of human HAL-01 cell growth in a cell viability assay.

SCC-15 = format: functional, cell-based;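 note: growth inhibition of SCC-15 cells, read out with a cell viability assay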
Description: SANGER: Inhibition of human SCC-15 cell growth in a cell viability assay.

KP-N-YS = format: functional, cell-based;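 note: cell viability assay measuring inhibition of cell line growth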
Description: SANGER: Inhibition of human KP-N-YS cell growth in a cell viability assay.

K562 = format: functional, cell-based
Description: SANGER: Inhibition of human K-562 cell growth in a cell viability assay.

KS-1 = format: functional, cell-based;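 note: growth inhibition of KS-1 cells, read out with a cell viability assay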
Description: SANGER: Inhibition of human KS-1 cell growth in a cell viability assay.

U-87 MG = format: functional, cell-based, U-87MG ATCC;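 note: growth inhibition of the cells measured with a viability assay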
Description: SANGER: Inhibition of human U-87-MG cell growth in a cell viability assay.

LB831-BLC = format: functional, cell-based;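 note: growth inhibition of LB831-BLC cells, read out with a cell viability assay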
Description: SANGER: Inhibition of human LB831-BLC cell growth in a cell viability assay.

MOLT-16 = format: functional, cell-based;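 note: growth inhibition of human MOLT-16 cells, read out with a cell viability assay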
Description: SANGER: Inhibition of human MOLT-16 cell growth in a cell viability assay.

Ramos-2G6-4C10 = format: functional, cell-based;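 note: growth inhibition of the cell line, measured by a cell viability read-out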
Description: SANGER: Inhibition of human Ramos-2G6-4C10 cell growth in a cell viability assay.

ES7 = format: functional, cell-based;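 note: growth inhibition of cultured human ES7 cells, read out as cell viability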
Description: SANGER: Inhibition of human ES7 cell growth in a cell viability assay.

NH-12 = format: functional, cell-based;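 note: growth inhibition of NH-12 cells, read out with a cell viability assay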
Description: SANGER: Inhibition of human NH-12 cell growth in a cell viability assay.

SCH = format: functional, cell-based;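 note: growth inhibition of human SCH cells, read out in a cell viability assay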
Description: SANGER: Inhibition of human SCH cell growth in a cell viability assay.

NCI-H209 = format: functional, cell-based;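 note: growth inhibition of human NCI-H209 cells, measured by a cell viability assay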
Description: SANGER: Inhibition of human NCI-H209 cell growth in a cell viability assay.

SK-MEL-2 = format: functional, cell-based;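 note: growth inhibition of human SK-MEL-2 cells measured with a cell viability assay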
Description: SANGER: Inhibition of human SK-MEL-2 cell growth in a cell viability assay.

IST-MEL1 = format: functional, cell-based;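 note: growth inhibition of the cell line, read out with a cell viability assay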
Description: SANGER: Inhibition of human IST-MEL1 cell growth in a cell viability assay.

697 = format: functional, cell-based
Description: SANGER: Inhibition of human 697 cell growth in a cell viability assay.

MS-1 = format: functional, cell-based;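 note: growth inhibition of MS-1 cells, read out by cell viability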
Description: SANGER: Inhibition of human MS-1 cell growth in a cell viability assay.

DJM-1 = format: functional, cell-based;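 note: growth inhibition of human DJM-1 cells, read out by a cell viability assay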
Description: SANGER: Inhibition of human DJM-1 cell growth in a cell viability assay.

8-MG-BA = format: functional, cell-based;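 note: growth inhibition of 8-MG-BA cells, read out with a cell viability assay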
Description: SANGER: Inhibition of human 8-MG-BA cell growth in a cell viability assay.

NB6 = format: functional, cell-based
Description: SANGER: Inhibition of human NB6 cell growth in a cell viability assay.

SW982 = format: functional, cell-based;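 note: growth inhibition of SW982 cells, read out with a cell viability assay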
Description: SANGER: Inhibition of human SW982 cell growth in a cell viability assay.

JVM-3 = format: functional, cell-based;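 note: growth inhibition of human JVM-3 cells, read out with a cell viability assay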
Description: SANGER: Inhibition of human JVM-3 cell growth in a cell viability assay.

GCIY = format: functional, cell-based;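 note: growth inhibition of the human GCIY cell line, read out by a cell viability assay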
Description: SANGER: Inhibition of human GCIY cell growth in a cell viability assay.

P30-OHK = format: functional, cell-based;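 note: growth inhibition of the P30-OHK cell line, read out with a cell viability assay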
Description: SANGER: Inhibition of human P30-OHK cell growth in a cell viability assay.

SH-4 = format: functional, cell-based;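 note: growth inhibition of SH-4 cells, read out with a cell viability assay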
Description: SANGER: Inhibition of human SH-4 cell growth in a cell viability assay.

NCI-H23 = format: functional, cell-based;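 note: cell viability assay measuring growth inhibition of NCI-H23 cells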
Description: SANGER: Inhibition of human NCI-H23 cell growth in a cell viability assay.

ACN = format: functional, cell-based;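 note: growth inhibition of the human ACN cell line, read out via cell viability testing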
Description: SANGER: Inhibition of human ACN cell growth in a cell viability assay.

COLO-829 = format: functional, cell-based
Description: SANGER: Inhibition of human COLO-829 cell growth in a cell viability assay.

NCI-H1155 = format: functional, cell-based;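 note: cell growth inhibition measured by a viability assay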
Description: SANGER: Inhibition of human NCI-H1155 cell growth in a cell viability assay.

D-263MG = format: functional, cell-based
Description: SANGER: Inhibition of human D-263MG cell growth in a cell viability assay.

MZ2-MEL = format: functional, cell-based;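 note: growth inhibition of MZ2-MEL cells read out with a cell viability assay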
Description: SANGER: Inhibition of human MZ2-MEL cell growth in a cell viability assay.

NB69 = format: functional, cell-based;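 note: growth inhibition of NB69 cells, determined by a cell viability assay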
Description: SANGER: Inhibition of human NB69 cell growth in a cell viability assay.

EW-18 = format: functional, cell-based;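 note: growth inhibition of EW-18 cells, read out by a cell viability assay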
Description: SANGER: Inhibition of human EW-18 cell growth in a cell viability assay.

KM-H2 = format: functional, cell-based;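 note: growth inhibition of KM-H2 cells, read out by a cell viability assay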
Description: SANGER: Inhibition of human KM-H2 cell growth in a cell viability assay.

LS-411N = format: functional, cell-based
NCI-H1092 = format: functional, cell-based;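 note: cell growth inhibition measured with a cell viability assay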
Description: SANGER: Inhibition of human NCI-H1092 cell growth in a cell viability assay.

SW684 = format: functional, cell-based;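 note: growth inhibition of human SW684 cells, measured by a cell viability assay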
Description: SANGER: Inhibition of human SW684 cell growth in a cell viability assay.

HCE-4 = format: functional, cell-based;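 note: cell viability assay measuring inhibition of growth in the human HCE-4 cell line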
Description: SANGER: Inhibition of human HCE-4 cell growth in a cell viability assay.

SK-NEP-1 = format: functional, cell-based;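 note: growth inhibition of human SK-NEP-1 cells, read out by a cell viability assay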
Description: SANGER: Inhibition of human SK-NEP-1 cell growth in a cell viability assay.

NCI-H526 = format: functional, cell-based;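 note: growth inhibition of the human NCI-H526 cell line, measured by a cell viability assay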
Description: SANGER: Inhibition of human NCI-H526 cell growth in a cell viability assay.

KG-1 = format: functional, cell-based
Description: SANGER: Inhibition of human KG-1 cell growth in a cell viability assay.

HT = format: functional, cell-based
Description: SANGER: Inhibition of human HT cell growth in a cell viability assay.

NCI-H1838 = format: functional, cell-based
Description: SANGER: Inhibition of human NCI-H1838 cell growth in a cell viability assay.

GOTO = format: functional, cell-based
Description: SANGER: Inhibition of human GOTO cell growth in a cell viability assay.

LXF-289 cell line = format: functional, cell-based
Description: SANGER: Inhibition of human LXF-289 cell growth in a cell viability assay.

Cn1c(=O)n(-c2ccc(C(C)(C)C#N)cc2)c2c3cc(-c4cnc5ccccc5c4)ccc3ncc21 [DACTOLISIB]
IC50 (LB771-HNC): 286 nM | IC50 (BB65-RCC): 12.7 nM | IC50 (IST-SL1): 1440 nM | IC50 (BV-173): 23.9 nM | IC50 (NOS-1): 30.1 nM | IC50 (MHH-NB-11): 629 nM | IC50 (TE-1): 223 nM | IC50 (TE-5): 46.8 nM | IC50 (PSN1): 44.4 nM | IC50 (NKM-1): 54.8 nM | IC50 (KLE): 252 nM | IC50 (RPMI-8226): 33.8 nM | IC50 (RCC10RGB): 224 nM | IC50 (COLO-684): 33.6 nM | IC50 (NCI-H2126): 148 nM | IC50 (EKVX): 101 nM | IC50 (KU812 cell line): 68.7 nM | IC50 (BE-13): 31.8 nM | IC50 (SW872): 64.6 nM | IC50 (HAL-01): 55.8 nM | IC50 (SCC-15): 174 nM | IC50 (KP-N-YS): 185 nM | IC50 (K562): > 2000 nM | IC50 (KS-1): 44.7 nM | IC50 (U-87 MG): 301 nM | IC50 (LB831-BLC): 121 nM | IC50 (MOLT-16): 17.2 nM | IC50 (Ramos-2G6-4C10): 8.49 nM | IC50 (ES7): 18.1 nM | IC50 (NH-12): 133 nM | IC50 (SCH): 67.1 nM | IC50 (NCI-H209): 17.3 nM | IC50 (SK-MEL-2): 76.7 nM | IC50 (IST-MEL1): 18.8 nM | IC50 697: 17.4 nM | IC50 (MS-1): 108 nM | IC50 (DJM-1): 340 nM | IC50 (8-MG-BA): 37.3 nM | IC50 (NB6): 397 nM | IC50 (SW982): 49.9 nM | IC50 (JVM-3): 30.8 nM | IC50 (GCIY): 50.7 nM | IC50 (P30-OHK): 83.5 nM | IC50 (SH-4): 75.2 nM | IC50 (NCI-H23): 219 nM | IC50 (ACN): 81.8 nM | IC50 (COLO-829): 296 nM | IC50 (NCI-H1155): 48.3 nM | IC50 (D-263MG): 29.3 nM | IC50 (MZ2-MEL): 39.7 nM | IC50 (NB69): 22.5 nM | IC50 (EW-18): 31.9 nM | IC50 (KM-H2): 171 nM | IC50 (LS-411N): 187 nM | IC50 (NCI-H1092): 145 nM | IC50 (SW684): 196 nM | IC50 (HCE-4): 262 nM | IC50 (SK-NEP-1): 34.2 nM | IC50 (NCI-H526): 824 nM | IC50 (KG-1): 84.2 nM | IC50 (HT): 41 nM | IC50 (NCI-H1838): 1020 nM | IC50 (GOTO): 250 nM | IC50 (LXF-289 cell line): 26 nM

CC(=O)c1c(C)c2cnc(Nc3ccc(N4CCNCC4)cn3)nc2n(C2CCCC2)c1=O [PALBOCICLIB]
IC50 (LB771-HNC): > 4000 nM | IC50 (BB65-RCC): 1510 nM | IC50 (IST-SL1): > 4000 nM | IC50 (BV-173): 652 nM | IC50 (NOS-1): > 4000 nM | IC50 (MHH-NB-11): 220 nM | IC50 (TE-1): > 4000 nM | IC50 (TE-5): > 4000 nM | IC50 (PSN1): > 4000 nM | IC50 (NKM-1): 412 nM | IC50 (KLE): > 4000 nM | IC50 (RPMI-8226): 527 nM | IC50 (RCC10RGB): > 4000 nM | IC50 (COLO-684): > 4000 nM | IC50 (EKVX): > 4000 nM | IC50 (KU812 cell line): 1890 nM | IC50 (BE-13): 444 nM | IC50 (SW872): 1980 nM | IC50 (HAL-01): 606 nM | IC50 (SCC-15): > 4000 nM | IC50 (KP-N-YS): 3620 nM | IC50 (K562): > 4000 nM | IC50 (KS-1): > 4000 nM | IC50 (U-87 MG): > 4000 nM | IC50 (LB831-BLC): > 4000 nM | IC50 (MOLT-16): 258 nM | IC50 (Ramos-2G6-4C10): 2770 nM | IC50 (ES7): 273 nM | IC50 (NH-12): > 4000 nM | IC50 (SCH): > 4000 nM | IC50 (NCI-H209): > 4000 nM | IC50 (SK-MEL-2): > 4000 nM | IC50 (IST-MEL1): > 4000 nM | IC50 697: 148 nM | IC50 (MS-1): > 4000 nM | IC50 (DJM-1): > 4000 nM | IC50 (8-MG-BA): > 4000 nM | IC50 (NB6): 2400 nM | IC50 (SW982): > 4000 nM | IC50 (JVM-3): 852 nM | IC50 (GCIY): > 4000 nM | IC50 (P30-OHK): > 4000 nM | IC50 (SH-4): > 4000 nM | IC50 (NCI-H23): > 4000 nM | IC50 (ACN): > 4000 nM | IC50 (NCI-H1155): > 4000 nM | IC50 (D-263MG): 717 nM | IC50 (MZ2-MEL): 1800 nM | IC50 (NB69): 162 nM | IC50 (EW-18): > 4000 nM | IC50 (KM-H2): 696 nM | IC50 (LS-411N): > 4000 nM | IC50 (NCI-H1092): > 4000 nM | IC50 (SW684): > 4000 nM | IC50 (HCE-4): > 4000 nM | IC50 (SK-NEP-1): 220 nM | IC50 (NCI-H526): > 4000 nM | IC50 (KG-1): 1270 nM | IC50 (HT): > 4000 nM | IC50 (GOTO): > 4000 nM | IC50 (LXF-289 cell line): > 4000 nM
